Results published in patent US5340591A, “Method of producing a solid dispersion of the sparingly water-soluble drug, nilvadipine” (Fujisawa Pharmaceutical Co., Ltd., priority 1992, dated 1994).
Converted amounts (≈) assume the structure as drawn.

Test: Solubility of nilvadipine bulk substance
Type: physicochemical
Settings: J.P.

- solubility (1st fluid): 1.3 µg/mL (≈ 3.37 µM)
- solubility (2nd fluid): 1 µg/mL (≈ 2.59 µM)
SMILES: COC(=O)C1=C(C#N)NC(C)=C(C(=O)OC(C)C)C1c1cccc([N+](=O)[O-])c1 (centres unmarked) [nilvadipine bulk substance, nilvadipine]
